Assay results reported in ChEMBL document CHEMBL3352783, “A highly water soluble benzimidazole derivative useful for the treatment of fasciolosis” (Bioorg Med Chem Lett, 2014).
Converted amounts (≈) assume the structure as drawn. Blank lines part the entries; values can stand above or below the compound they belong to.

Columns and labels:
Fasciola hepatica [1] = assay: Antiparasitic activity against 10 week old Fasciola hepatica infected in sheep assessed as reduction in worm burden at 15 mg/kg, po; type: functional
[2] = Aqueous stability of the compound assessed as time duration showing >95% compound stability at pH 7 and room temperature by UV-HPLC; type: physicochemical; conditions: buffer
Fasciola hepatica [3] = assay: Antiparasitic activity against Fasciola hepatica assessed as mortality at 50 mg/L after 24 hrs relative to untreated control; type: functional
Fasciola hepatica [4] = assay: Antiparasitic activity against Fasciola hepatica assessed as mortality at 10 mg/L after 48 hrs relative to untreated control; type: functional
Fasciola hepatica [5] = assay: Antiparasitic activity against Fasciola hepatica assessed as mortality at 10 mg/L after 24 hrs relative to untreated control; type: functional
Fasciola hepatica [6] = assay: Antiparasitic activity against Fasciola hepatica assessed as mortality at 50 mg/L after 48 hrs relative to untreated control; type: functional
Fasciola hepatica [7] = assay: Antiparasitic activity against Fasciola hepatica assessed as mortality at 10 mg/L after 72 hrs relative to untreated control; type: functional
Fasciola hepatica [8] = assay: Antiparasitic activity against Fasciola hepatica infected in sheep assessed as fluke reduction at 12 mg/kg, po; type: functional
Fasciola hepatica [9] = assay: Antiparasitic activity against Fasciola hepatica infected in sheep assessed as reduction of eggs at 12 mg/kg, po; type: functional
Fasciola hepatica [10] = assay: Antiparasitic activity against Fasciola hepatica infected in sheep assessed as fluke reduction at 4 mg/kg, intramuscular; type: functional
Fasciola hepatica [11] = assay: Antiparasitic activity against Fasciola hepatica infected in sheep assessed as fluke reduction at 4 mg/kg, sc; type: functional; conditions: route subcutaneous
Fasciola hepatica [12] = assay: Antiparasitic activity against Fasciola hepatica infected in sheep assessed as reduction of eggs at 4 mg/kg, sc; type: functional; conditions: route subcutaneous
Fasciola hepatica [13] = assay: Antiparasitic activity against Fasciola hepatica infected in sheep assessed as reduction of eggs at 4 mg/kg, intramuscular; type: functional
Fasciola hepatica [14] = assay: Antiparasitic activity against Fasciola hepatica assessed as mortality at 50 mg/L after 72 hrs relative to untreated control; type: functional
[15] = Aqueous solubility of the compound at pH 7 and 25 degC; type: physicochemical

Stability [2]: > 26 h
SMILES: CSc1nc2cc(Oc3cccc4ccccc34)c(Cl)cc2[nH]1
Efficacy (Fasciola hepatica [1]): 86.9%

SMILES: CSc1nc2cc(Oc3cccc4ccccc34)c(Cl)cc2n1COP(=O)([O-])[O-].[Na+].[Na+]
Efficacy (Fasciola hepatica [3]): 100%
Efficacy (Fasciola hepatica [4]): 95.8%
Efficacy (Fasciola hepatica [5]): 95.8%
Efficacy (Fasciola hepatica [6]): 100%
Efficacy (Fasciola hepatica [7]): 100%
Efficacy (Fasciola hepatica [8]): 83.3%
Stability [2]: > 26 h
Efficacy (Fasciola hepatica [9]): 95.1%
Efficacy (Fasciola hepatica [10]): 87.8%
Efficacy (Fasciola hepatica [11]): 61.4%
Efficacy (Fasciola hepatica [12]): 65.8%
Efficacy (Fasciola hepatica [13]): 44.9%
Efficacy (Fasciola hepatica [14]): 100%

SMILES: CSc1nc2cc(Cl)c(Oc3cccc(Cl)c3Cl)cc2[nH]1 [TRICLABENDAZOLE]
Efficacy (Fasciola hepatica [3]): 100%
Efficacy (Fasciola hepatica [4]): 100%
Efficacy (Fasciola hepatica [5]): 100%
Efficacy (Fasciola hepatica [6]): 100%
solubility [15]: 0.2 µg/mL (≈ 0.556 µM)
Efficacy (Fasciola hepatica [7]): 100%
Stability [2]: > 24 h
Efficacy (Fasciola hepatica [14]): 100%
